Data taken from US20250002507A1, “7,8-DIHYDRO-5H-1,6-NAPHTHYRIDINE DERIVATIVES AS POSITIVE ALLOSTERIC MODULATORS OF THE MUSCARINIC ACETYLCHOLINE RECEPTOR M4 FOR TREATING NEUROLOGICAL AND PSYCHIATRIC DISORDERS” (Vanderbilt University, priority 2021, published 2025).

Target: T1, Human M4 (Homo sapiens, UniProt P08173)
T1 construct: expressed in transfected cells
T1 sequence (P08173 1-479): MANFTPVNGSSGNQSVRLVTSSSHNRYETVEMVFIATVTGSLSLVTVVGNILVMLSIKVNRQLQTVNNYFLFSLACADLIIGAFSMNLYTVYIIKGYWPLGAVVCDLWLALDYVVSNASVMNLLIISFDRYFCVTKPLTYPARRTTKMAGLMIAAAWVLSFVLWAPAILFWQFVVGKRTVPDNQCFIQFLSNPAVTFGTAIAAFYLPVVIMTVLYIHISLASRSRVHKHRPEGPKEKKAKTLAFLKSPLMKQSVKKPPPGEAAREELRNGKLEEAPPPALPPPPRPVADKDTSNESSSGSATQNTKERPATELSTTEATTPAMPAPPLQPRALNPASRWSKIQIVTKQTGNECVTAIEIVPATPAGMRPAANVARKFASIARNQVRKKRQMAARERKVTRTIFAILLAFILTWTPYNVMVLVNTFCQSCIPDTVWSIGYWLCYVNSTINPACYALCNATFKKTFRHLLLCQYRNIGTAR
Assay: mAChR M4 cell-based functional assay (calcium flux, potentiation of EC20 acetylcholine response), hM4-Gqi5 CHO-K1 cells
Conditions: for Emax / Emax at 30 µM: CHO-K1; for EC50: hM4-Gqi5 CHO-K1 cells, calcium flux, PAM of EC20 acetylcholine, read-out: Human M4 EC50; for Emax at 30 µM: % ACh maximum at 30 μM, human M4, read-out: Emax
Description: Human and rat M4 cDNAs, along with the chimeric G protein Gqi5, were transfected into Chinese hamster ovary (CHO-K1) cells purchased from the American Type Culture Collection using Lipofectamine2000. hM4-Gqi5 cells were grown in Ham's F-12 medium containing 10% heat-inactivated fetal bovine serum (FBS), 20 mM HEPES, 50 μg/mL G418 sulfate, and 500 μg/mL Hygromycin B. rM4-Gqi5 cells were grown in DMEM containing 10% heat-inactivated FBS, 20 mM HEPES, 400 μg/mL G418 sulfate, and 500 μg/mL Hygromycin B.
For high throughput measurement of agonist-evoked increases in intracellular calcium, CHO-K1 cells stably expressing muscarinic receptors were plated in growth medium lacking G418 and hygromycin at 15,000 cells/20 μL/well in Greiner 384-well black-walled, tissue culture (TC)-treated, clear-bottom plates (VWR). Cells were incubated overnight at 37° C. and 5% CO2. The next day, cells were washed using an ELX 405 (BioTek) with assay buffer; the final volume was then aspirated to 20 μL. Next, 20 μL of a 2.3 μM stock of Fluo-4/acetoxymethyl ester (Invitrogen, Carlsbad, CA), prepared as a 2.3 mM stock in DMSO and mixed in a 1:1 ratio with 10% (w/v) Pluronic F-127 and diluted in assay buffer, was added to the wells and the cell plates were incubated for 50 min at 37° C. and 5% CO2. Dye was removed by washing with the ELX 405 and the final volume was aspirated to 20 μL. Compound master plates were formatted in an 11 point concentration-response curve (CRC) format (1:3 dilutions) in 100% DMSO with a starting concentration of 10 mM using a BRAVO liquid handler (Agilent). Test compound CRCs were then transferred to daughter plates (240 nL) using the Echo acoustic plate reformatter (Labcyte, Sunnyvale, CA) and then diluted into assay buffer (40 μL) to a 2× stock using a Thermo Fisher Combi (Thermo Fisher Scientific, Waltham, MA).
Calcium flux was measured using the Functional Drug Screening System (FDSS) 6000 or 7000 (Hamamatsu Corporation, Tokyo, Japan) as an increase in the fluorescent static ratio. Compounds were applied to cells (20 μL, 2×) using the automated system of the FDSS at 2-4 seconds into the protocol and the data were collected at 1 Hz. At 144 seconds, 10 μL of an EC20 concentration of the muscarinic receptor agonist acetylcholine was added (5×), followed by the addition of 12 μL of an EC80 concentration of acetylcholine at the 230 second time point (5×). Agonist activity was analyzed as a concentration-dependent increase in calcium mobilization upon compound addition. Positive allosteric modulator activity was analyzed as a concentration-dependent increase in the EC20 acetylcholine response. Antagonist activity was analyzed as a concentration-dependent decrease in the EC80 acetylcholine response. Concentration-response curves were generated using a four-parameter logistical equation in XLFit curve fitting software (IDBS, Bridgewater, NJ) for Excel (Microsoft, Redmond, WA) or Prism (GraphPad Software, Inc., San Diego, CA).
Compounds were synthesized as described above. Activity (EC50 and Emax) was determined in the mAChR M4 cell-based functional assay as described above and the data are shown in Tables 2-4. The compound number corresponds to the compound numbers used in Table 1.

SMILES | Emax [%] | EC50 [nM] | Emax at 30 µM [%]
Cc1c(N2CCc3ncccc3C2)nn2cnnc2c1C [Compound 1, 6-(7,8-dimethyl-[1,2,4]triazolo[4,3-b]pyridazin-6-yl)-7,8-dihydro-5H-1,6-naphthyridine] | 97 | 3970 | –
Cc1cnc2c(c1)CN(c1nn3cnnc3c(C)c1C)CC2 [Compound 5, 6-(7,8-Dimethyl-[1,2,4]triazolo[4,3-b]pyridazin-6-yl)-3-methyl-7,8-dihydro-5H-1,6-naphthyridine] | 95 | 230 | –
Cc1c(N2CCc3ncc(Oc4ccc(OC(F)(F)F)c(F)c4)cc3C2)nn2cnnc2c1C [Compound 6, 6-(7,8-dimethyl-[1,2,4]triazolo[4,3-b]pyridazin-6-yl)-3-[3-fluoro-4-(trifluoromethoxy)phenoxy]-7,8-dihydro-5H-1,6-naphthyridine] | – | 3620 | 33
Cc1c(N2CCc3ncc(Oc4ccc5c(c4)OCCO5)cc3C2)nn2cnnc2c1C [Compound 7, 3-(2,3-dihydro-1,4-benzodioxin-6-yloxy)-6-(7,8-dimethyl-[1,2,4]triazolo[4,3-b]pyridazin-6-yl)-7,8-dihydro-5H-1,6-naphthyridine] | – | 295 | 63
Cc1c(N2CCc3ncc(Oc4ccc5c(cnn5C)c4)cc3C2)nn2cnnc2c1C [Compound 8, 6-(7,8-dimethyl-[1,2,4]triazolo[4,3-b]pyridazin-6-yl)-3-(1-methylindazol-5-yl)oxy-7,8-dihydro-5H-1,6-naphthyridine] | – | 200 | 68
Cc1noc(C)c1-c1cnc2c(c1)CN(c1nn3cnnc3c(C)c1C)CC2 [Compound 10, 4-[6-(7,8-dimethyl-[1,2,4]triazolo[4,3-b]pyridazin-6-yl)-7,8-dihydro-5H-1,6-naphthyridin-3-yl]-3,5-dimethyl-isoxazole] | – | 212 | 78
Cc1c(N2CCc3ncc(N4CCCCC4)cc3C2)nn2cnnc2c1C [Compound 16, 6-(7,8-dimethyl-[1,2,4]triazolo[4,3-b]pyridazin-6-yl)-3-(1-piperidyl)-7,8-dihydro-5H-1,6-naphthyridine] | – | 789 | 89
Cc1c(N2CCc3ncc(-c4cnn(C5CCCCC5)c4)cc3C2)nn2cnnc2c1C [Compound 20, 3-(1-cyclohexylpyrazol-4-yl)-6-(7,8-dimethyl-[1,2,4]triazolo[4,3-b]pyridazin-6-yl)-7,8-dihydro-5H-1,6-naphthyridine] | – | 331 | 71
Cc1c(N2CCc3ncc(-c4cnn(CC5CC5)c4)cc3C2)nn2cnnc2c1C [Compound 21, 3-[1-(cyclopropylmethyl)pyrazol-4-yl]-6-(7,8-dimethyl-[1,2,4]triazolo[4,3-b]pyridazin-6-yl)-7,8-dihydro-5H-1,6-naphthyridine] | – | 162 | 82
Cc1nn(C)c(C)c1-c1cnc2c(c1)CN(c1nn3cnnc3c(C)c1C)CC2 [Compound 23, 6-(7,8-dimethyl-[1,2,4]triazolo[4,3-b]pyridazin-6-yl)-3-(1,3,5-trimethylpyrazol-4-yl)-7,8-dihydro-5H-1,6-naphthyridine] | – | 149 | 94

Continued, values first:

Emax [%] | EC50 [nM] | Emax at 30 µM [%] | SMILES
– | 628 | 102 | Cc1c(N2CCc3ncc(-c4ccn(C)n4)cc3C2)nn2cnnc2c1C [Compound 2, 6-(7,8-dimethyl-[1,2,4]triazolo[4,3-b]pyridazin-6-yl)-3-(1-methylpyrazol-3-yl)-7,8-dihydro-5H-1,6-naphthyridine]
69 | 4510 | – | Cc1c(N2CCc3ncc(C#N)cc3C2)nn2cnnc2c1C [Compound 3, 6-(7,8-Dimethyl-[1,2,4]triazolo[4,3-b]pyridazin-6-yl)-7,8-dihydro-5H-1,6-naphthyridine-3-carbonitrile]
– | 322 | 87 | Cc1c(N2CCc3ncc(Oc4ccc(F)cc4)cc3C2)nn2cnnc2c1C [Compound 4, 6-(7,8-dimethyl-[1,2,4]triazolo[4,3-b]pyridazin-6-yl)-3-(4-fluorophenoxy)-7,8-dihydro-5H-1,6-naphthyridine]
– | 94.3 | 79 | Cc1c(N2CCc3ncc(-c4cncs4)cc3C2)nn2cnnc2c1C [Compound 9, 5-[6-(7,8-dimethyl-[1,2,4]triazolo[4,3-b]pyridazin-6-yl)-7,8-dihydro-5H-1,6-naphthyridin-3-yl]thiazole]
– | 1040 | 57 | COc1ccc(Oc2cnc3c(c2)CN(c2nn4cnnc4c(C)c2C)CC3)cc1Cl [Compound 11, 3-(3-chloro-4-methoxy-phenoxy)-6-(7,8-dimethyl-[1,2,4]triazolo[4,3-b]pyridazin-6-yl)-7,8-dihydro-5H-1,6-naphthyridine]
– | 191 | 76 | COc1ccc(Oc2cnc3c(c2)CN(c2nn4cnnc4c(C)c2C)CC3)cc1 [Compound 12, 6-(7,8-Dimethyl-[1,2,4]triazolo[4,3-b]pyridazin-6-yl)-3-(4-methoxyphenoxy)-7,8-dihydro-5H-1,6-naphthyridine]
62 | 285 | – | Cc1c(N2CCc3ncc(-c4ccnn4C(C)C)cc3C2)nn2cnnc2c1C [Compound 13, 6-(7,8-Dimethyl-[1,2,4]triazolo[4,3-b]pyridazin-6-yl)-3-(2-isopropylpyrazol-3-yl)-7,8-dihydro-5H-1,6-naphthyridine]
– | 1150 | 76 | Cc1c(N2CCc3ncc(NC(=O)C4CC4)cc3C2)nn2cnnc2c1C [Compound 14, N-[6-(7,8-dimethyl-[1,2,4]triazolo[4,3-b]pyridazin-6-yl)-7,8-dihydro-5H-1,6-naphthyridin-3-yl]cyclopropanecarboxamide]
68 | 5870 | – | Cc1c(N2CCc3ncc(NC(=O)C4COC4)cc3C2)nn2cnnc2c1C [Compound 15, N-[6-(7,8-Dimethyl-[1,2,4]triazolo[4,3-b]pyridazin-6-yl)-7,8-dihydro-5H-1,6-naphthyridin-3-yl]oxetane-3-carboxamide]
– | 936 | 66 | Cc1c(N2CCc3ncc(NCc4ccc(C(C)(C)O)cc4)cc3C2)nn2cnnc2c1C [Compound 17, 2-[4-[[[6-(7,8-dimethyl-[1,2,4]triazolo[4,3-b]pyridazin-6-yl)-7,8-dihydro-5H-1,6-naphthyridin-3-yl]amino]methyl]phenyl]propan-2-ol]
– | 798 | 47 | Cc1c(N2CCc3ncc(NCc4cccc(F)c4)cc3C2)nn2cnnc2c1C [Compound 18, 6-(7,8-dimethyl-[1,2,4]triazolo[4,3-b]pyridazin-6-yl)-N-[(3-fluorophenyl)methyl]-7,8-dihydro-5H-1,6-naphthyridin-3-amine]
– | 49.3 | 106 | Cc1c(N2CCc3ncc(-c4ccns4)cc3C2)nn2cnnc2c1C [Compound 19, 5-[6-(7,8-dimethyl-[1,2,4]triazolo[4,3-b]pyridazin-6-yl)-7,8-dihydro-5H-1,6-naphthyridin-3-yl]isothiazole]
– | 146 | 93 | Cc1nn(C)cc1-c1cnc2c(c1)CN(c1nn3cnnc3c(C)c1C)CC2 [Compound 22, 3-(1,3-dimethylpyrazol-4-yl)-6-(7,8-dimethyl-[1,2,4]triazolo[4,3-b]pyridazin-6-yl)-7,8-dihydro-5H-1,6-naphthyridine]
